Assay results from patent US20240239790A1, “7-Morpholino-1,6-Naphthyridin-5-yl Derivatives and Pharmaceutical Compositions Thereof Useful as DNA-PK Inhibitor” (adMare Therapeutics Society, priority 2021, published 2024).
Like-named read-outs stand apart in the source and are kept apart here.

What was measured:
[1] = test system: pDNA-PK induction in HCT116 tumour spheroids; assay: Multicellular tumour spheroid + radiation, pDNA-PK (ser2056) inhibition, immunohistochemical endpoint, HCT116; type: cell-based; conditions: Homo sapiens, 20 Gy, 20% O2
Summary of the method: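 HCT116 spheroids (~0.5 mm) in MEM/10% FBS, 20% O2, 37° C., pre-incubated 1 h with compound (10 or 5 μM down to 3.5 nM), irradiated 20 Gy, then 2 h further with compound. Cryosections immunostained for pDNA-PK ser2056; EC50 is concentration halving radiation-induced pDNA-PK.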

[2] = Microsomal Stability Assay, human liver microsomes; type: in vitro ADME; conditions: for microsomal CLint at 0.1 uM: both sexes, pH 7.4, human liver microsomes 0.1 mg/mL, 0.1 uM compound; for Microsomal Stability Human % rem. 60 min: human liver microsomes
Protocol: (§1) Samples were then mixed and centrifuged. Supernatants were used for HPLC-MS/MS analysis. […] Peak areas corresponding to the test compound were recorded.

[3] = Hepatocyte Stability Assay, mouse hepatocytes; type: in vitro ADME; conditions: for hepatocyte CLint at 1 uM: male, CD-1, cryopreserved hepatocytes, pH 7.3, mouse hepatocytes 0.7 million cells per mL, 1 uM compound; for Hepatocyte Stability Mouse % rem. 120 min: mouse hepatocytes
Summary of the method: (§2)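 Pooled cryopreserved hepatocytes (male CD-1 mice, ≥10; mixed-gender human donors, ≥10) at 0.7 million viable cells/mL in Krebs-Heinslet buffer pH 7.3, compound 1 uM, ≤0.01% DMSO. Incubated at 37° C./5% CO2 up to 2 h, acetonitrile-quenched; parent peak area by HPLC-MS/MS.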

[4] = Hepatocyte Stability Assay, human hepatocytes; type: in vitro ADME; conditions: for hepatocyte CLint at 1 uM: both sexes, cryopreserved hepatocytes, pH 7.3, human hepatocytes 0.7 million cells per mL, 1 uM compound; for Hepatocyte Stability Human % rem. 120 min: human hepatocytes
Summary of the method: as §2

[5] = Microsomal Stability Assay, mouse liver microsomes; type: in vitro ADME; conditions: for microsomal CLint at 0.1 uM: male, CD-1, pH 7.4, mouse liver microsomes 0.1 mg/mL, 0.1 uM compound; for Microsomal Stability Mouse % rem. 60 min: mouse liver microsomes
Protocol: as §1

[6] = HCT-116, 2 hours following radiation, Example 9 Study 2, read-out: Spheroid Cell line: HCT116 Immunohistochemical endpoint pDNA-PK inhibition EC50
[7] = HCT-116, Spheroid, Cell Line: HCT115 (so in the source), 2 hours following radiation, Example 7, read-out: EC50, Immunohistochemical endpoint, pDNA-PK inhibition

| EC50 [1, 6] | EC50 [1, 7] | microsomal CLint at 0.1 uM [2] | Microsomal Stability Human % rem. 60 min [2] | hepatocyte CLint at 1 uM [3] | Hepatocyte Stability Mouse % rem. 120 min [3] | hepatocyte CLint at 1 uM [4] | Hepatocyte Stability Human % rem. 120 min [4] | microsomal CLint at 0.1 uM [5] | Microsomal Stability Mouse % rem. 60 min [5] | EC50 ([1]; HCT-116, 2 h, spheroids, Example 8, read-out: Cell line: HCT116 Immunohistochemical endpoint pDNA-PK inhibition EC50) | Compound |
| --- | --- | --- | --- | --- | --- | --- | --- | --- | --- | --- | --- |
| 10 to 500 nM | 10 to 500 nM | > 116 µL/min/mg | E (% remaining = 0-25%) | < 8.2 µL/min/1e6 cells | H (% remaining = 75-100%) | < 8.2 µL/min/1e6 cells | G (% remaining = 50-75%) | < 116 µL/min/mg | F (% remaining = 25-50%) |  | CN(C)C(=O)Cn1c(=O)n(C2CCOCC2)c2nc(N[C@H]3CC[C@@H](Oc4nc(N5CCOCC5)cc5ncccc45)CC3)ncc21 [Compound 97, N,N-Dimethyl-2-(2-(((1s,4s)-4-((7-morpholino-1,6-naphthyridin-5-yl)oxy)cyclohexyl)amino)-8-oxo-9-(tetrahydro-2H-pyran-4-yl)-8,9-dihydro-7H-purin-7-yl)acetamide] |
| 1000 to 10000 nM | 1000 to 10000 nM | < 116 µL/min/mg | H (% remaining = 75-100%) | < 8.2 µL/min/1e6 cells | H (% remaining = 75-100%) | > 8.2 µL/min/1e6 cells | F (% remaining = 25-50%) | > 116 µL/min/mg | F (% remaining = 25-50%) |  | O=C(COc1cnc(N[C@H]2CC[C@@H](Oc3nc(N4CCOCC4)cc4ncccc34)CC2)nc1)N1CCNCC1 [Compound 63, 2-((2-(((1s,4s)-4-((7-Morpholino-1,6-naphthyridin-5-yl)oxy)cyclohexyl)amino)pyrimidin-5-yl)oxy)-1-(piperazin-1-yl)ethan-1-one] |
| 10 to 500 nM | 10 to 500 nM | < 116 µL/min/mg | G (% remaining = 50-75%) | < 8.2 µL/min/1e6 cells | H (% remaining = 75-100%) | < 8.2 µL/min/1e6 cells | H (% remaining = 75-100%) | < 116 µL/min/mg | G (% remaining = 50-75%) |  | CN(C)C(=O)Cn1ccc2nc(N[C@H]3CC[C@@H](Oc4nc(N5CCOCC5)cc5ncccc45)CC3)ncc21 [Compound 86, N,N-Dimethyl-2-(2-(((1s,4s)-4-((7-morpholino-1,6-naphthyridin-5-yl)oxy)cyclohexyl)amino)-5H-pyrrolo[3,2-d]pyrimidin-5-yl)acetamide] |
| 10 to 500 nM | 10 to 500 nM | > 116 µL/min/mg | E (% remaining = 0-25%) | < 8.2 µL/min/1e6 cells | G (% remaining = 50-75%) | < 8.2 µL/min/1e6 cells | F (% remaining = 25-50%) | < 116 µL/min/mg | G (% remaining = 50-75%) | 10 to 500 nM | CN(C)C(=O)COc1cnc(N[C@H]2CC[C@@H](Oc3nc(N4CCOCC4)cc4ncccc34)CC2)nc1 [Compound 54, N,N-Dimethyl-2-((2-(((1s,4s)-4-((7-morpholino-1,6-naphthyridin-5-yl)oxy)cyclohexyl)amino)pyrimidin-5-yl)oxy)acetamide] |
| 500 to 1000 nM | 500 to 1000 nM | > 116 µL/min/mg | F (% remaining = 25-50%) | < 8.2 µL/min/1e6 cells | G (% remaining = 50-75%) | < 8.2 µL/min/1e6 cells | H (% remaining = 75-100%) | < 116 µL/min/mg | G (% remaining = 50-75%) |  | O=C(COc1cnc(N[C@H]2CC[C@@H](Oc3nc(N4CCOCC4)cc4ncccc34)CC2)nc1)N1CCC1 [Compound 75, 1-(Azetidin-1-yl)-2-((2-(((1s,4s)-4-((7-morpholino-1,6-naphthyridin-5-yl)oxy)cyclohexyl)amino)pyrimidin-5-yl)oxy)ethan-1-one] |
| 10 to 500 nM | 10 to 500 nM | > 116 µL/min/mg | F (% remaining = 25-50%) | < 8.2 µL/min/1e6 cells | G (% remaining = 50-75%) | < 8.2 µL/min/1e6 cells | G (% remaining = 50-75%) | < 116 µL/min/mg | H (% remaining = 75-100%) |  | O=C(COc1cnc(N[C@H]2CC[C@@H](Oc3nc(N4CCOCC4)cc4ncccc34)CC2)nc1)N1CCOCC1 [Compound 61, 1-Morpholino-2-((2-(((1s,4s)-4-((7-morpholino-1,6-naphthyridin-5-yl)oxy)cyclohexyl)amino)pyrimidin-5-yl)oxy)ethan-1-one] |
| 500 to 1000 nM | 500 to 1000 nM | > 116 µL/min/mg | E (% remaining = 0-25%) | < 8.2 µL/min/1e6 cells | G (% remaining = 50-75%) | < 8.2 µL/min/1e6 cells | G (% remaining = 50-75%) | < 116 µL/min/mg | F (% remaining = 25-50%) |  | CN(C)C(=O)COc1ccc(C(=O)N[C@H]2CC[C@@H](Oc3nc(N4CCOCC4)cc4ncccc34)CC2)cn1 [Compound 117, 6-(2-(dimethylamino)-2-oxoethoxy)-N-((1s,4s)-4-((7-morpholino-1,6-naphthyridin-5-yl)oxy)cyclohexyl)nicotinamide] |

| Compound | EC50 [1, 6] | EC50 [1, 7] | microsomal CLint at 0.1 uM [2] | Microsomal Stability Human % rem. 60 min [2] | hepatocyte CLint at 1 uM [3] | Hepatocyte Stability Mouse % rem. 120 min [3] | hepatocyte CLint at 1 uM [4] | Hepatocyte Stability Human % rem. 120 min [4] | microsomal CLint at 0.1 uM [5] | Microsomal Stability Mouse % rem. 60 min [5] | EC50 ([1]; HCT-116, 2 h, spheroids, Example 8, read-out: Cell line: HCT116 Immunohistochemical endpoint pDNA-PK inhibition EC50) |
| --- | --- | --- | --- | --- | --- | --- | --- | --- | --- | --- | --- |
| CN1CCN(C(=O)COc2cnc(N[C@H]3CC[C@@H](Oc4nc(N5CCOCC5)cc5ncccc45)CC3)nc2)CC1 [Compound 62, 1-(4-Methylpiperazin-1-yl)-2-((2-(((1s,4s)-4-((7-morpholino-1,6-naphthyridin-5-yl)oxy)cyclohexyl)amino)pyrimidin-5-yl)oxy)ethan-1-one] | 500 to 1000 nM | 500 to 1000 nM | < 116 µL/min/mg | G (% remaining = 50-75%) | < 8.2 µL/min/1e6 cells | H (% remaining = 75-100%) | > 8.2 µL/min/1e6 cells | F (% remaining = 25-50%) | < 116 µL/min/mg | F (% remaining = 25-50%) |  |
